Here are results for one molecule from US20090149417A1, “Methods and compositions for the treatment of cancer using benzopyrone-type PARP inhibitors” (priority 2007, published 2009).

Common to all, as to assay type: cell-based, human
Test [1] has as its system Colo375FG metastatic pancreatic adenocarcinoma cells. The test can be described thus: Live cell number (Coulter counter, methylene blue, PI exclusion). Here is the method:
Colo375FG metastatic pancreatic adenocarcinoma cells are cultured in Dulbecco Modified Eagle Medium with 10% fetal bovine serum. Cells are plated at 10^5 per P100 or at 10^4 per P60 (for assays requiring up to 3 days of culture), in the presence of different concentrations of BiPar compounds and other agents, or DMSO control. Following treatment, the number of attached cells is measured using Coulter counter, and by staining with 1% methylene blue. Methylene blue is dissolved in 50%-50% mixture of Methanol and water. Cells are plated in 24- or 96-well plates and treated with compounds as indicated, then media are aspirated, cells are washed with PBS, fixed in methanol for 5-10 min, washed and the plates are allowed to dry completely. Methylene blue solution is added to wells and plates are incubated for 5 min. Staining solution is removed and plates are washed with dH2O. After plates are completely dry, a small amount of 1N HCl is added to each well to extract the methylene blue. The OD readout at 600 nm and a calibration curve are used to determine cell number.
IIIg (6-nitro-5-iodo-benzopyrone) is dissolved directly from dry powder to 10 mM stock solution in DMSO for each separate experiment, and then the entire volume of the stock solution is used to prepare working concentrations in cell culture medium to avoid any possibility of precipitation and the corresponding loss of compound. Control experiments are carried out with the matching volume/concentration of the vehicle (DMSO).
After the addition of drugs and incubation, cells are trypsinized and aliquots of the samples are taken for counting and PI (Propidium Iodide) exclusion assay. One part of the cells is centrifuged and resuspended in 0.5 ml ice-cold PBS containing 5 μg/ml of PI. The other part of the cells is fixed in ice-cold 70% ethanol and stored in a freezer overnight. For cell cycle analysis, cells are stained with propidium iodide (PI) by standard procedures. Cellular DNA content is determined by flow cytometry using BD LSRII FACS, and the percentages of cells in G1, S or G2/M are determined using ModFit software.
Colo375FG metastatic pancreatic adenocarcinoma cells are obtained from ATCC and cultured in Dulbecco Modified Eagle Medium with 10% fetal bovine serum. Cells are plated at 10^5 cells per P100 cell culture dish or at 10^4 cells per P60 cell culture dish in the presence of different concentrations compounds or DMSO control. Following treatment, the number of attached cells is measured using Coulter counter, and by staining with 1% methylene blue. Methylene blue is dissolved in 50%-50% mixture of Methanol and water. Cells are plated in 24- or 96-well plates and treated as planned, media are aspirated, cells are washed with PBS, fixed in methanol for 5-10 min, methanol is aspirated and plates are allowed to dry completely. Methylene blue solution is added to wells and plates are incubated for 5 min. Staining solution is removed and plates are washed with dH2O until washes are no longer blue. After plates are completely dry, a small amount of 1N HCl is added to each well to extract the methylene blue. The OD readout at 600 nm and a calibration curve are used to determine cell number.
Compounds of the invention are dissolved directly from dry powder to 10 mM stock solution in DMSO for each separate experiment. Control experiments are carried out with the matching volume/concentration of the vehicle (DMSO). In these controls, the cells show no changes in their growth or cell cycle distribution.
After the addition of drugs and incubation, cells are trypsinized and aliquots of the samples are taken for counting and PI (Propidium Iodide) exclusion assay. One part of the cells is centrifuged and resuspended in 0.5 ml ice-cold PBS containing 5 ug/ml of PI. The other part of the cells is fixed in ice-cold 70% ethanol and stored in a freezer overnight. For cell cycle analysis, cells are stained with propidium iodide (PI) by standard procedures. […]

Test [2] has the same test system. The test is described as follows: Bromodeoxyuridine (BrdU) labeling assay (flow cytometry). The settings on record: Compound IIIc 12.5 mM; one value printed beside OxaliPt 0 10 20 mM, OxaliPt level not assignable. On the procedure: 50 μl of BrdU (Sigma Chemical Co., St. Louis, Mo.) stock solution (1 mM) is added to give 10 μM BrdU final concentration. The cells are incubated for 30 min at 37° C. and fixed in ice-cold 70% ethanol and stored in a cold room (4° C.) overnight. Fixed cells are centrifuged and washed once in 2 ml PBS, then resuspended in 0.7 ml of denaturation solution (0.2 mg/ml pepsin in 2 N HCl) for 15 min at 37° C. in the dark and suspended with 1.04 ml 1M Tris buffer (Trizma base, Sigma Chemical Co.) to terminate the hydrolysis and washed in 2 ml PBS.
(§1) Cells are resuspended in 100-μl anti-BrdU antibody (DakoCytomation, Carpinteria, Calif.) with 1:100 dilution in TBFP permeable buffer (0.5% Tween-20, 1% bovine serum albumin and 1% fetal bovine serum in PBS) and incubated for 25 min at room temperature in the dark and washed in 2 ml PBS. The primary antibody-labeled cells are resuspended in 100 μl Alexa Fluor F(ab′)2 fragment of goat anti-mouse IgG (H+L) (2 mg/mL) (Molecular Probes, Eugene, Oreg.) with 1:200 dilution in TBFP permeable buffer and incubated for 25 min at room temperature in the dark and washed in 2 ml PBS, then resuspended in 0.5 ml ice-cold PBS containing 1 μg/ml 4′,6-diamidino-2-phenylindole (DAPI) for at least 30 min. All cell samples are analyzed with a BD LSR II (BD Biosciences, San Jose, Calif.).
as §1, with “50 μl of BrdU (Sigma Chemical Co., St. Louis, Mo.) stock solution (1 mM) is added to give 10 μM BrdU final concentration. The cells are incubated for 30 min at 37 °C and fixed in ice-cold 70% ethanol and stored in a cold room (4 °C) overnight. Fixed cells are centrifuged and washed once in 2 ml PBS, then resuspended in 0.7 ml of denaturation solution (0.2 mg/ml pepsin in 2 N HCl) for 15 min at 37° C. in the dark and suspended with 1.04 ml 1M Tris buffer (Trizma base, Sigma Chemical Co.) and washed in 2 ml PBS. Then cells” for “Cells”
For orientation: In flow cytometry, cells or beads pass a laser one at a time.

The test system is the same in test [3]. The test can be described thus: TUNEL apoptosis assay (flow cytometry). Here is the method:
Cells are labeled for apoptosis with the “In Situ Cell Death Detection Kit, Fluorescein” (Roche Diagnostics Corporation, Roche Applied Science, Indianapolis, Ind.). Briefly, fixed cells are centrifuged and washed once in phosphate-buffered saline (PBS) containing 1% bovine serum albumin (BSA), then resuspended in 2 ml permeabilization buffer (0.1% Triton X-100 and 0.1% sodium citrate in PBS) for 25 min at room temperature and washed twice in 0.2 ml PBS/1% BSA. The cells are resuspended in 50 μl TUNEL reaction mixture (TdT enzyme and labeling solution) and incubated for 60 min at 37° C. in a humidified dark atmosphere in an incubator. The labeled cells are washed once in PBS/1% BSA, then resuspended in 0.5 ml ice-cold PBS containing 1 μg/ml 4′,6-diamidino-2-phenylindole (DAPI) for at least 30 min. All cell samples are analyzed with a BD LSR II (BD Biosciences, San Jose, Calif.).
The cells are labeled for apoptosis with the “In Situ Cell Death Detection Kit, Fluorescein” (Roche Diagnostics Corporation, Roche Applied Science, Indianapolis, Ind.). Briefly, fixed cells are centrifuged and washed once in phosphate-buffered saline (PBS) containing 1% bovine serum albumin (BSA), then resuspended in 2 ml permeabilization buffer (0.1% Triton X-100 and 0.1% sodium citrate in PBS) for 25 minutes at room temperature and washed twice in 0.2 ml PBS/1% BSA. The cells are resuspended in 50 μl TUNEL reaction mixture (TdT enzyme and labeling solution) and incubated for 60 min at 37° C. in a humidified dark atmosphere in an incubator. The labeled cells are washed once in PBS/1% BSA, then resuspended in 0.5 ml ice-cold PBS containing 1 μg/ml 4,6-diamidino-2-phenylindole (DAPI) for at least 30 min. All cell samples are analyzed with a BD LSR II (BD Biosciences, San Jose, Calif.).

Where [4] appears, read: Compound IIIc 12.5 mM, OxaliPt 0 mM.
Setting [5] is: combination: Compound IIIc 12.5 mM + OxaliPt 10 mM.
Where [6] appears, read: combination: Compound IIIc 12.5 mM + OxaliPt 20 mM.

Consider `O=c1ccc2c(CCCCN3CC=C(c4ccccc4)CC3)c([N+](=O)[O-])ccc2o1` [IIIc], for which the “Live Cell (%)” value is on record as 54% in test [1] (setting [4]), 33% in test [1] (setting [5]) and 25% in test [1] (setting [6]). In addition, in test [2], the “Cells in S-phase of cell cycle (% BrdU+)” value is listed as 73.87%. The “Dead cells TUNEL (%)” value in test [3] (setting [4]) is on record as 2.7%; in test [3] (setting [5]), 16.1%; in test [3] (setting [6]) it was 28.2%.
